Test results reported in patent US11034932B2, “Composition capable of promoting the growth of denitrifying microorganisms and uses thereof” (CHINA PETROLEUM & CHEMICAL CORPORATION, priority 2016, dated 2021).

Test system: denitrifying microorganisms
Experiment: AO wastewater treatment with promoter 1# plus additive (Example 2)
Conditions: additive (0.05-0.10 mg/L) added along with promoter 1#; process as example 1
Method: Hereunder the present invention will be detailed in examples. In the following examples, the COD concentration is measured with the method specified in GB11914-89 “Water Quality—Determination of Chemical Oxygen Demand—Dichromate Method”; the ammonia nitrogen concentration is measured with the method specified in GB7478-87 “Water Quality—Determination of Ammonium—Distillation and Titration Method”; the concentration of nitrite nitrogen is measured with the method specified in GB7493-87 “Water Quality—Determination of Nitrite Nitrogen—Spectrophotometric Method”; the total nitrogen concentration is measured with the method specified in GB11894-89 “Water Quality—Determination of Total Nitrogen—UV Spectrophotometric Method—Alkaline Potassium Persulfate Digestion Method”.
The wastewater is treated according to the treatment process and operating condition described in example 1, but: an additive is added in a certain amount along with the promoter 1#.
Wherein the formic acid hydroxylamine is obtained by mixing a formic acid and a hydroxylamine at 1:1 molar ratio; the acetic acid hydroxylamine is obtained by mixing an acetic acid and a hydroxylamine at 1:1 molar ratio; both of them are […] after they are prepared.

SMILES | COD in outputted water [mg/L] | NH3—N in outputted water [mg/L] | NO2^—N in outputted water [mg/L] | TN in outputted water [mg/L]
NCCCCNCCCN [Spermidine] | 48.4 | 8.9 | 0.2 | 23.9
O=S([O-])[O-].[Na+].[Na+] [Na2SO3] | 44.3 | 10.0 | 0.2 | 18.2
NCCCNCCCCNCCCN [Spermine] | 47.9 | 9.3 | 0.1 | 21.3
